In patent US12247015B2, “3-amino-4H-benzo[e][1,2,4]thiadiazine 1,1-dioxide derivatives as inhibitors of MRGX2” (Solent Therapeutics, LLC, priority 2019, dated 2025):

Key:
[1] = target: hMRGX2 (CHO-K1 cells overexpressing MRGX2) (Homo sapiens (Human), UniProt Q96LB1); assay: In vitro inhibition (EC50) of intracellular calcium flux, FLIPR Tetra, substance P stimulation; type: cell-based; conditions: stimulated with MRGX2 ligand substance P, FLIPR Calcium 5, read-out: hMRGX2 Cellular Potency (pEC50) (converted)
Procedure, shortened: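 CHO-K1 cells overexpressing human MRGX2, loaded with Calcium 5 dye for 30 min at 37 °C, then given compound (11-point, top 10 μM).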

human MRGX2 receptor = human MRGX2 receptor (Homo sapiens (Human), UniProt Q96LB1); assay: In vitro radioligand binding assay (Kd); conditions: membrane from SF9 cells overexpressing human MRGX2; 3H-labeled ligand; pH 7.4, room temperature, 60 minutes
Method: In vitro Radioligand Binding Assay (Kd)
Equilibrium dissociation constants, Kd, for many of the compounds described in the Examples section (“test compounds”) are determined in the presence cellular membrane prepared from SF9 cell lines overexpressing the human MRGX2 receptor. The assay is carried out in a 96-well plate (Greiner V-Bottom #651201). […] The assay mixtures, which comprise MRGX2 receptor, radiolabeled ligand and test compound, are incubated at room temperature (˜22° C.) for 60 minutes to reach equilibrium. After incubation, the assay mixtures are collected on a filter mat (Filtermat A, Perkin Elmer) using a cell harvester (Harvester 96, TOMTEC). The filter mat is completely dried. A solid scintillant (Meltilex, Perkin Elmer) is added to each filter membrane and the level of radioactivity (“Signal”) from each well (assay mixture) is recorded using a scintillation counter (Trilux Microbeta, PerkinElmer). Kd is determined by curve-fitting the dose response data ([I], Signal) for each set of samples to the equation,
[formula] where [I] is the concentration of the test compound. The data are reported as pKd

hMRGX2 (CHO-K1 cells overexpressing MRGX2), sequence (Q96LB1 whole entry): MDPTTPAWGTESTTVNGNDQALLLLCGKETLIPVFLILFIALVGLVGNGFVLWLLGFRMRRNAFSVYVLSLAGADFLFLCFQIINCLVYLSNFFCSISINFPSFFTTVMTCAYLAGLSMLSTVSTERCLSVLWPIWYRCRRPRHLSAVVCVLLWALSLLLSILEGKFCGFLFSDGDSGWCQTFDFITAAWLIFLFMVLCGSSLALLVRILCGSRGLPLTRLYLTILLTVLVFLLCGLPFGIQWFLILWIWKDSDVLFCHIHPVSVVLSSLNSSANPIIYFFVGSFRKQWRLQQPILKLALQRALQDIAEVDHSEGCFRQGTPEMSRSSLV
human MRGX2 receptor, sequence (Q96LB1 whole entry): as above

Row | Compound | EC50 [1] [nM] | hMRGX2 Binding Affinity (pKd) (human MRGX2 receptor)
1 | O=S1(=O)N=C(NCc2nccs2)Nc2c(-c3cccc(F)c3Cl)cccc21 [Example 65, 5-(2-chloro-3-fluorophenyl)-3-((thiazol-2-ylmethyl)amino)-4H-benzo[e][1,2,4]thiadiazine 1,1-dioxide] | 10.7 | 7.055
2 | O=S1(=O)N=C(NCc2ncccc2F)Nc2c(-c3ccccc3Cl)cc(F)cc21 [Example 16, 5-(2-chlorophenyl)-7-fluoro-3-(((3-fluoropyridin-2-yl)methyl)amino)-4H-benzo[e][1,2,4]thiadiazine 1,1-dioxide] | 10.3 | 7.5
3 | O=S1(=O)N=C(NCc2ncco2)Nc2c(-c3cccc(F)c3F)cccc21 [Example 27, 5-(2,3-difluorophenyl)-3-((oxazol-2-ylmethyl)amino)-4H-benzo[e][1,2,4]thiadiazine 1,1-dioxide] | 344 | 
4 | COc1cccc(CCNC2=NS(=O)(=O)c3cccc(-c4cccc(F)c4Cl)c3N2)c1 [Example 70, 5-(2-chloro-3-fluorophenyl)-3-((3-methoxyphenethyl)amino)-4H-benzo[e][1,2,4]thiadiazine 1,1-dioxide] | 57.9 | 
5 | O=S1(=O)N=C(NCc2ccsn2)Nc2c(-c3cccc(F)c3Cl)cccc21 [Example 64, 5-(2-chloro-3-fluorophenyl)-3-((isothiazol-3-ylmethyl)amino)-4H-benzo[e][1,2,4]thiadiazine 1,1-dioxide] | 15.6 | 
6 | O=S1(=O)N=C(NCc2nccs2)Nc2c(-c3cccc(F)c3Cl)cc(F)cc21 [Example 5, 5-(2-chloro-3-fluorophenyl)-7-fluoro-3-((thiazol-2-ylmethyl)amino)-4H-benzo[e][1,2,4]thiadiazine 1,1-dioxide] | 20 | 
7 | O=S1(=O)N=C(NCCc2cccnc2)Nc2c(-c3cccc(F)c3Cl)cccc21 [Example 69, 5-(2-chloro-3-fluorophenyl)-3-((2-(pyridin-3-yl)ethyl)amino)-4H-benzo[e][1,2,4]thiadiazine 1,1-dioxide] | 601 | 
8 | COCCNC1=NS(=O)(=O)c2cccc(-c3ccc(F)cc3Cl)c2N1 [Example 133, 5-(2-chloro-4-fluorophenyl)-3-((2-methoxyethyl)amino)-4H-benzo[e][1,2,4]thiadiazine 1,1-dioxide] | 296 | 
9 | O=S1(=O)N=C(NCc2ccccn2)Nc2c(-c3cccc(F)c3Cl)cccc21 [Example 31, 5-(2-chloro-3-fluorophenyl)-3-((pyridin-2-ylmethyl)amino)-4H-benzo[e][1,2,4]thiadiazine 1,1-dioxide] | 29.9 | 
10 | N#Cc1c(F)cccc1-c1cccc2c1NC(NCc1ncco1)=NS2(=O)=O [Example 161, 2-fluoro-6-(3-((oxazol-2-ylmethyl)amino)-1,1-dioxido-4H-benzo[e][1,2,4]thiadiazin-5-yl)benzonitrile] | 61.5 | 
11 | CN1CCOC(CNC2=NS(=O)(=O)c3cccc(-c4cccc(F)c4Cl)c3N2)C1 (stereo not drawn) [Example 57, 5-(2-chloro-3-fluorophenyl)-3-(((4-methylmorpholin-2-yl)methyl)amino)-4H-benzo[e][1,2,4]thiadiazine 1,1-dioxide] | 173 | 
12 | CO[C@H](C)CNC1=NS(=O)(=O)c2cccc(-c3cc(F)cc(F)c3)c2N1 (single isomer, unassigned) [Example 85] | 249 | 
13 | CN(C)C(=O)CNC1=NS(=O)(=O)c2cccc(-c3cccc(F)c3Cl)c2N1 [Example 62, 2-((5-(2-chloro-3-fluorophenyl)-1,1-dioxido-4H-benzol[e][1,2,4]thiadiazin-3-yl)amino)-N,N-dimethylacetamide] | 279 | 
14 | O=S1(=O)N=C(NCCc2ccccn2)Nc2c(-c3cc(F)cc(F)c3)cccc21 [Example 80, 5-(3,5-difluorophenyl)-3-((2-(pyridin-2-yl)ethyl)amino)-4H-benzo[e][1,2,4]thiadiazine 1,1-dioxide] | 897 | 
15 | O=S1(=O)N=C(NCc2ccc(F)cc2)Nc2c(-c3ccnc(F)c3Cl)cccc21 [Example 54, 5-(3-chloro-2-fluoropyridin-4-yl)-3-((4-fluorobenzyl)amino)-4H-benzo[e][1,2,4]thiadiazine 1,1-dioxide] | 13.2 | 
16 | COCCNC1=NS(=O)(=O)c2cccc(-c3cc(F)cc(F)c3Cl)c2N1 [Example 32, 5-(2-chloro-3,5-difluorophenyl)-3-((2-methoxyethyl)amino)-4H-benzo[e][1,2,4]thiadiazine 1,1-dioxide] | 35.7 | 
17 | COc1cccc(CNC2=NS(=O)(=O)c3cccc(-c4cccc(F)c4F)c3N2)n1 [Example 19, 5-(2,3-difluorophenyl)-3-(((6-methoxypyridin-2-yl)methyl)amino)-4H-benzo[e][1,2,4]thiadiazine 1,1-dioxide] | 23.4 | 
18 | O=S1(=O)N=C(NCc2ccccn2)Nc2c(-c3cc(F)ccc3F)cccc21 [Example 139, 5-(2,5-difluorophenyl)-3-((pyridin-2-ylmethyl)amino)-4H-benzo[e][1,2,4]thiadiazine 1,1-dioxide] | 246 | 
19 | COC(C)CNC1=NS(=O)(=O)c2cccc(-c3cc(F)cc(F)c3)c2N1 (stereo not drawn) [Example 166, 5-(3,5-difluorophenyl)-3-((2-methoxypropyl)amino)-4H-benzo[e][1,2,4]thiadiazine 1,1-dioxide] | 340 | 
20 | O=S1(=O)N=C(NCCCF)Nc2c(-c3cccc(F)c3Cl)cccc21 [Example 152, 5-(2-chloro-3-fluorophenyl)-3-((3-fluoropropyl)amino)-4H-benzo[e][1,2,4]thiadiazine 1,1-dioxide] | 223 | 
21 | O=S1(=O)N=C(NCc2c(F)cccc2F)Nc2c(-c3cc(F)cc(F)c3)cccc21 [Example 78, 3-((2,6-difluorobenzyl)amino)-5-(3,5-difluorophenyl)-4H-benzo[e][1,2,4]thiadiazine 1,1-dioxide] | 224 | 
22 | O=S1(=O)N=C(NCC(F)F)Nc2c(-c3cccc(F)c3Cl)cc(F)cc21 [Example 10, 5-(2-chloro-3-fluorophenyl)-3-((2,2-difluoroethyl)amino)-7-fluoro-4H-benzo[e][1,2,4]thiadiazine 1,1-dioxide] | 39.3 | 

Second part, the molecule after the results:

Row | EC50 [1] [nM] | hMRGX2 Binding Affinity (pKd) (human MRGX2 receptor) | Compound
23 | 484 |  | O=S1(=O)N=C(NCc2ncccc2F)Nc2c(C3CC3)cccc21 [Example 119, 5-cyclopropyl-3-(((3-fluoropyridin-2-yl)methyl)amino)-4H-benzo[e][1,2,4]thiadiazine 1,1-dioxide]
24 | 378 |  | CC(C)c1ccc(NC2=NS(=O)(=O)c3cccc(C4CC4)c3N2)cn1 [Example 118, 5-cyclopropyl-3-((6-isopropylpyridin-3-yl)amino)-4H-benzo[e][1,2,4]thiadiazine 1,1-dioxide]
25 | 235 |  | CNC1=NS(=O)(=O)c2cccc(-c3ccc(F)cc3Cl)c2N1 [Example 94, 5-(2-chloro-4-fluorophenyl)-3-(methylamino)-4H-benzo[e][1,2,4]thiadiazine 1,1-dioxide]
26 | 81.8 |  | CCc1ccccc1-c1cccc2c1NC(NC)=NS2(=O)=O [Example 91, 5-(2-ethylphenyl)-3-(methylamino)-4H-benzo[e][1,2,4]thiadiazine 1,1-dioxide]
27 | 89.1 |  | CC(C)c1ccc(NC2=NS(=O)(=O)c3cccc(-c4cnn(C5CC(F)(F)C5)c4)c3N2)cc1 [Example 104, 5-(1-(3,3-difluorocyclobutyl)-1H-pyrazol-4-yl)-3-((4-isopropylphenyl)amino)-4H-benzo[e][1,2,4]thiadiazine 1,1-dioxide]
28 | 186 |  | O=S1(=O)N=C(NCC(F)F)Nc2c(-c3ccccc3Cl)cccc21 [Example 44, 5-(2-chlorophenyl)-3-((2,2-difluoroethyl)amino)-4H-benzo[e][1,2,4]thiadiazine 1,1-dioxide]
29 | 93.3 |  | CO[C@H](C)CNC1=NS(=O)(=O)c2cccc(-c3cccc(F)c3Cl)c2N1 [Example 47, (R)-5-(2-chloro-3-fluorophenyl)-3-((2-methoxypropyl)amino)-4H-benzo[e][1,2,4]thiadiazine 1,1-dioxide]
30 | 92.7 |  | CNC1=NS(=O)(=O)c2cccc(-c3ccc(C)cc3Cl)c2N1 [Example 92, 5-(2-chloro-4-methylphenyl)-3-(methylamino)-4H-benzo[e][1,2,4]thiadiazine 1,1-dioxide]
31 | 592 |  | CC(C)c1ccc(NC2=NS(=O)(=O)c3cccc(-c4ccn(C)n4)c3N2)cc1 [Example 108, 3-((4-isopropylphenyl)amino)-5-(1-methyl-1H-pyrazol-3-yl)-4H-benzo[e][1,2,4]thiadiazine 1,1-dioxide]
32 | 32.2 |  | CO[C@H](C)CCNC1=NS(=O)(=O)c2cccc(-c3cccc(F)c3Cl)c2N1 (single isomer, unassigned) [Example 154]
33 | 131 |  | CCNC1=NS(=O)(=O)c2cccc(-c3ccnc(F)c3Cl)c2N1 [Example 52, 5-(3-chloro-2-fluoropyridin-4-yl)-3-(ethylamino)-4H-benzo[e][1,2,4]thiadiazine 1,1-dioxide]
34 | 229 |  | CC(C)NC1=NS(=O)(=O)c2cccc(-c3cccc(F)c3Cl)c2N1 [Example 158, 5-(2-chloro-3-fluorophenyl)-3-(isopropylamino)-4H-benzo[e][1,2,4]thiadiazine 1,1-dioxide]
